Measurements: patent US10590113B2, “6-hydroxy-4-oxo-1,4-dihydropyrimidine-5-carboxamides as APJ agonists” (priority 2016, dated 2020)

The compounds below were run against T1, human APJ receptor (Homo sapiens, UniProt P35414) (assay: Intracellular cAMP Accumulation Assay (APJ hcAMP, HTRF)). Conditions: not given.
T1 construct: expressed in transfected cells; host or cells: HEK293
T1 sequence (P35414 1-380): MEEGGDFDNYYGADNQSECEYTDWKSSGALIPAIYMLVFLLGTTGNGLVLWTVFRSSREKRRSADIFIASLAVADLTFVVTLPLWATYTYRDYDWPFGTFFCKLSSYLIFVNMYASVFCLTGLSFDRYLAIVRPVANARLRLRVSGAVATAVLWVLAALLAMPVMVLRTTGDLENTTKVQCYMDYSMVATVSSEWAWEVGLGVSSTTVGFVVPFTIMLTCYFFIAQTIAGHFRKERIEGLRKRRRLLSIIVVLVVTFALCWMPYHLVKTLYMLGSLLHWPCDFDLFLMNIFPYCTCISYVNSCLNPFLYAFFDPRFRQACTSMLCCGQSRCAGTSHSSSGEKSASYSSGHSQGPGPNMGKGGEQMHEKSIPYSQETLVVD
Type: cell-based
Procedure, shortened: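 Stably transfected HEK293 cells (5,000/well) incubated 30 min at room temperature with serially diluted compound, […] and 2 μM forskolin. cAMP measured by HTRF after 60 min with detection reagents, quantified against a cAMP standard curve; EC50 from variable-slope sigmoidal fit of inhibition of forskolin-stimulated cAMP.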

| Compound | EC50 [nM] |
| --- | --- |
| CCCCc1nc(O)c(C(=O)N2CC[C@@H](c3ccccc3)C2)c(=O)n1-c1c(CC)cccc1CC [Example 86, 2-butyl-3-(2,6-diethylphenyl)-6-hydroxy-5-[(3S)-3-phenylpyrrolidine-1-carbonyl]-3,4-dihydropyrimidin-4-one] | 0.01 to 10 |
| CCCCc1nc(=O)c(C(=O)N2CC[C@H](c3ccccc3)C2)c(O)n1-c1c(CC)cccc1CC [Example 90, 2-butyl-3-(2,6-diethylphenyl)-6-hydroxy-5-[(3R)-3-phenylpyrrolidine-1-carbonyl]-3,4-dihydropyrimidin-4-one] | 0.01 to 10 |

Next, values leading:

| EC50 [nM] | Compound |
| --- | --- |
| 0.01 to 10 | [2H]C([2H])([2H])Oc1cccc(OC([2H])([2H])[2H])c1-n1c(COCC)nc(=O)c(C(=O)N2CC[C@H](c3ccccc3)C2)c1O [Example 106, 1-[2,6-bis(^2H3)methoxyphenyl]-2-(ethoxymethyl)-6-hydroxy-5-[(3R)-3-phenylpyrrolidine-1-carbonyl]-1,4-dihydropyrimidin-4-one] |
| 0.01 to 10 | [2H]C([2H])([2H])Oc1cccc(OC([2H])([2H])[2H])c1-n1c(COCC)nc(=O)c(C(=O)N2CC[C@@H](c3ccccc3)C2)c1O [Example 109, 1-[2,6-bis(^2H3)methoxyphenyl]-2-(ethoxymethyl)-6-hydroxy-5-[(3S)-3-phenylpyrrolidine-1-carbonyl]-1,4-dihydropyrimidin-4-one] |

Same assay, conditions: human APJ, intracellular cAMP accumulation; read-out: hAPJ cAMP EC50 Potency range

| Compound | EC50 [nM] |
| --- | --- |
| COc1cccc(OC)c1-n1c(COC(C)(C)C)nc(=O)c(C(=O)N2CCC(c3ccc(F)cc3)C2)c1O (centres unmarked) [Example 44, 2-[(tert-butoxy)methyl]-1-(2,6-dimethoxyphenyl)-5-[3-(4-fluorophenyl)pyrrolidine-1-carbonyl]-6-hydroxy-1,4-dihydropyrimidin-4-one] | 0.01 to 10 |
| COc1cccc(OC)c1-n1c(COC(C)(C)C)nc(=O)c(C(=O)N2CC[C@H](c3ccccc3)C2)c1O [Example 51, 2-[(tert-butoxy)methyl]-1-(2,6-dimethoxyphenyl)-6-hydroxy-5-[(3R)-3-phenylpyrrolidine-1-carbonyl]-1,4-dihydropyrimidin-4-one] | 0.01 to 10 |
| CCCCc1nc(=O)c(C(=O)N2Cc3ccc(F)cc3C2)c(O)n1-c1c(OC)cccc1OC [Example 56, 2-butyl-1-(2,6-dimethoxyphenyl)-5-(5-fluoro-2,3-dihydro-1H-isoindole-2-carbonyl)-6-hydroxy-1,4-dihydropyrimidin-4-one] | 0.01 to 10 |
| CCCCc1nc(=O)c(C(=O)N2Cc3ccncc3C2)c(O)n1-c1c(OC)cccc1OC [Example 60, 2-butyl-1-(2,6-dimethoxyphenyl)-6-hydroxy-5-{1H,2H,3H-pyrrolo[3,4-c]pyridine-2-carbonyl}-1,4-dihydropyrimidin-4-one] | 10 to 100 |
| CCCCc1nc(=O)c(C(=O)N2Cc3cccnc3C2)c(O)n1-c1c(OC)cccc1OC [Example 61, 2-butyl-1-(2,6-dimethoxyphenyl)-6-hydroxy-5-{5H,6H,7H-pyrrolo[3,4-b]pyridine-6-carbonyl}-1,4-dihydropyrimidin-4-one] | 10 to 100 |
| CCCCc1nc(=O)c(C(=O)N2CC[C@H](OCc3ccccn3)C2)c(O)n1-c1c(OC)cccc1OC [Example 64, 2-butyl-1-(2,6-dimethoxyphenyl)-6-hydroxy-5-[(3S)-3-[(pyridin-2-yl)methoxy]pyrrolidine-1-carbonyl]-1,4-dihydropyrimidin-4-one] | 0.01 to 10 |
| CCCCc1nc(=O)c(C(=O)N2Cc3ccc(C#N)cc3C2)c(O)n1-c1c(OC)cccc1OC [Example 65, 2-[2-butyl-1-(2,6-dimethoxyphenyl)-6-hydroxy-4-oxo-1,4-dihydropyrimidine-5-carbonyl]-2,3-dihydro-1H-isoindole-5-carbonitrile] | 0.01 to 10 |
| CCCCc1nc(=O)c(C(=O)N2CCN(Cc3cccc(F)c3)CC2)c(O)n1-c1c(OC)cccc1OC [Example 69, 2-butyl-1-(2,6-dimethoxyphenyl)-5-{4-[(3-fluorophenyl)methyl]piper-azine-1-carbonyl}-6-hydroxy-1,4-dihydropyrimidin-4-one] | 0.01 to 10 |
| CCCCc1nc(=O)c(C(=O)N2CCC(c3ccncc3)CC2)c(O)n1-c1c(OC)cccc1OC [Example 71, 2-butyl-1-(2,6-dimethoxyphenyl)-6-hydroxy-5-[4-(pyridin-4-yl)piperidine-1-carbonyl]-1,4-dihydropyrimidin-4-one] | 0.01 to 10 |
| CCCCc1nc(=O)c(C(=O)N2CCC(c3ccc(F)cc3)CC2)c(O)n1-c1c(OC)cccc1OC [Example 74, 2-butyl-1-(2,6-dimethoxyphenyl)-5-[4-(4-fluorophenyl)piperidine-1-carbonyl]-6-hydroxy-1,4-dihydropyrimidin-4-one] | 10 to 100 |
| CCCCc1nc(=O)c(C(=O)N2CC[C@@H](c3ccccc3)C2)c(O)n1-c1c(OC)ncnc1OC [Example 112, 2-butyl-3-(4,6-dimethoxypyrimidin-5-yl)-6-hydroxy-5-[(3S)-3-phenylpyrrolidine-1-carbonyl]-3,4-dihydropyrimidin-4-one] | 0.01 to 10 |

Further lines, results first:

| EC50 [nM] | Compound |
| --- | --- |
| 0.01 to 10 | COc1cccc(OC)c1-n1c(CC2CC2)nc(=O)c(C(=O)N2CC[C@@H](c3ccccc3)C2)c1O [Example 31, (S)-2-(cyclopropylmethyl)-3-(2,6-dimethoxyphenyl)-6-hydroxy-5-(3-phenylpyrrolidine-1-carbonyl)pyrimidin-4(3H)-one] |
| 0.01 to 10 | COc1cccc(OC)c1-n1c(CC2CC2)nc(=O)c(C(=O)N2CC[C@H](c3ccccc3)C2)c1O [Example 32, (R)-2-(cyclopropylmethyl)-3-(2,6-dimethoxyphenyl)-6-hydroxy-5-(3-phenylpyrrolidine-1-carbonyl)pyrimidin-4(3H)-one] |
| 0.01 to 10 | C=CCCc1nc(=O)c(C(=O)N2CC[C@H](c3ccccc3)C2)c(O)n1-c1c(C)cccc1OC [Example 35, (R)-2-(but-3-en-1-yl)-6-hydroxy-3-(2-methoxy-6-methylphenyl)-5-(3-phenylpyrrolidine-1-carbonyl)pyrimidin-4(3H)-one] |
| 10 to 100 | CCCCc1nc(=O)c(C(=O)N2CC[C@H](NC(=O)OCc3ccccc3)C2)c(O)n1-c1c(OC)cccc1OC [Example 58, benzyl N-[(3S)-1-[2-butyl-1-(2,6-dimethoxyphenyl)-6-hydroxy-4-oxo-1,4-dihydropyrimidine-5-carbonyl]pyrrolidin-3-yl]carbamate] |
| 0.01 to 10 | CCCCc1nc(=O)c(C(=O)N2CC[C@@H](OCc3ccccc3)C2)c(O)n1-c1c(OC)cccc1OC [Example 59, 5-[(3R)-3-(benzyloxy)pyrrolidine-1-carbonyl]-2-butyl-1-(2,6-dimethoxyphenyl)-6-hydroxy-1,4-dihydropyrimidin-4-one] |
| 10 to 100 | CCCCc1nc(=O)c(C(=O)N2CC[C@@H](NC(=O)OCc3ccccc3)C2)c(O)n1-c1c(OC)cccc1OC [Example 62, benzyl N-[(3R)-1-[2-butyl-1-(2,6-dimethoxyphenyl)-6-hydroxy-4-oxo-1,4-dihydropyrimidine-5-carbonyl]pyrro1idin-3-yl]carbamate] |
| 0.01 to 10 | CCCCc1nc(=O)c(C(=O)N2CC[C@H](OCc3ccccc3)C2)c(O)n1-c1c(OC)cccc1OC [Example 63, 5-[(3S)-3-(benzyloxy)pyrrolidine-1-carbonyl]-2-butyl-1-(2,6-dimethoxyphenyl)-6-hydroxy-1,4-dihydropyrimidin-4-one] |
| 0.01 to 10 | CCCCc1nc(=O)c(C(=O)N2Cc3ccccc3C2)c(O)n1-c1c(OC)cccc1OC [Example 66, 2-butyl-5-(2,3-dihydro-1H-isoindole-2-carbonyl)-1-(2,6-dimethoxyphenyl)-6-hydroxy-1,4-dihydropyrimidin-4-one] |
| 10 to 100 | CCCCc1nc(=O)c(C(=O)N2CCC(c3ccccc3)CC2)c(O)n1-c1c(OC)cccc1OC [Example 72, 2-butyl-1-(2,6-dimethoxyphenyl)-6-hydroxy-5-(4-phenylpiperidine-1-carbonyl)-1,4-dihydropyrimidin-4-one] |
| 0.01 to 10 | CCCCc1nc(=O)c(C(=O)N2CCC(c3ccc(F)cc3)C2)c(O)n1-c1c(OC)cccc1OC (centres unmarked) [Example 87, 2-butyl-3-(2,6-dimethoxyphenyl)-5-[3-(4-fluorophenyl)pyrrolidine-1-carbonyl]-6-hydroxy-3,4-dihydropyrimidin-4-one] |
| 0.01 to 10 | CCCCc1nc(=O)c(C(=O)N2CC(c3cccc(Cl)c3)C2)c(O)n1-c1c(OC)cccc1OC [Example 88, 2-butyl-5-[3-(3-chlorophenyl)azetidine-1-carbonyl]-3-(2,6-dimethoxyphenyl)-6-hydroxy-3,4-dihydropyrimidin-4-one] |
| 0.01 to 10 | COc1cccc(OC)c1-n1c(CCC2CC2)nc(=O)c(C(=O)N2CC[C@H](c3ccccc3)C2)c1O [Example 96, 2-(2-cyclopropylethyl)-1-(2,6-dimethoxyphenyl)-6-hydroxy-5-[(3R)-3-phenylpyrrolidine-1-carbonyl]-1,4-dihydropyrimidin-4-one] |
| 10 to 100 | COc1cccc(OC)c1-n1c(COC(C)C)nc(=O)c(C(=O)N2CC(c3ccccc3)C2)c1O [Example 110, 1-(2,6-dimethoxyphenyl)-6-hydroxy-5-(3-phenylazetidine-1-carbonyl)-2-[(propan-2-yloxy)methyl]-1,4-dihydropyrimidin-4-one] |
| 10 to 100 | COc1cccc(OC)c1-n1c(COC(C)C)nc(=O)c(C(=O)N2CC(c3ccc(C)cc3)C2)c1O [Example 111, 1-(2,6-dimethoxyphenyl)-6-hydroxy-5-[3-(4-methylphenyl)azetidine-1-carbonyl]-2-[(propan-2-yloxy)methyl]-1,4-dihydropyrimidin-4-one] |
